According to ChEMBL document CHEMBL5523740, “Discovery of Potent and Selective c-Met Degraders for Hepatocellular Carcinoma Treatment” (J Med Chem, 2024):
The source made the active and inactive calls. No cut-off for these calls is given here.

How the values were obtained:
MHCC97H [1] = assay: Antiproliferative activity against human MHCC97H cells incubated for 24 hrs by CCK8 assay; type: functional, cell-based
[2] = molecular target: T1, Hepatocyte growth factor receptor (Homo sapiens, UniProt P08581); assay: Induction of c-Met degradation in human MHCC97H cells at 1 uM incubated for 24 hrs by Western blotting analysis; type: cell-based
T1 sequence (P08581 whole entry): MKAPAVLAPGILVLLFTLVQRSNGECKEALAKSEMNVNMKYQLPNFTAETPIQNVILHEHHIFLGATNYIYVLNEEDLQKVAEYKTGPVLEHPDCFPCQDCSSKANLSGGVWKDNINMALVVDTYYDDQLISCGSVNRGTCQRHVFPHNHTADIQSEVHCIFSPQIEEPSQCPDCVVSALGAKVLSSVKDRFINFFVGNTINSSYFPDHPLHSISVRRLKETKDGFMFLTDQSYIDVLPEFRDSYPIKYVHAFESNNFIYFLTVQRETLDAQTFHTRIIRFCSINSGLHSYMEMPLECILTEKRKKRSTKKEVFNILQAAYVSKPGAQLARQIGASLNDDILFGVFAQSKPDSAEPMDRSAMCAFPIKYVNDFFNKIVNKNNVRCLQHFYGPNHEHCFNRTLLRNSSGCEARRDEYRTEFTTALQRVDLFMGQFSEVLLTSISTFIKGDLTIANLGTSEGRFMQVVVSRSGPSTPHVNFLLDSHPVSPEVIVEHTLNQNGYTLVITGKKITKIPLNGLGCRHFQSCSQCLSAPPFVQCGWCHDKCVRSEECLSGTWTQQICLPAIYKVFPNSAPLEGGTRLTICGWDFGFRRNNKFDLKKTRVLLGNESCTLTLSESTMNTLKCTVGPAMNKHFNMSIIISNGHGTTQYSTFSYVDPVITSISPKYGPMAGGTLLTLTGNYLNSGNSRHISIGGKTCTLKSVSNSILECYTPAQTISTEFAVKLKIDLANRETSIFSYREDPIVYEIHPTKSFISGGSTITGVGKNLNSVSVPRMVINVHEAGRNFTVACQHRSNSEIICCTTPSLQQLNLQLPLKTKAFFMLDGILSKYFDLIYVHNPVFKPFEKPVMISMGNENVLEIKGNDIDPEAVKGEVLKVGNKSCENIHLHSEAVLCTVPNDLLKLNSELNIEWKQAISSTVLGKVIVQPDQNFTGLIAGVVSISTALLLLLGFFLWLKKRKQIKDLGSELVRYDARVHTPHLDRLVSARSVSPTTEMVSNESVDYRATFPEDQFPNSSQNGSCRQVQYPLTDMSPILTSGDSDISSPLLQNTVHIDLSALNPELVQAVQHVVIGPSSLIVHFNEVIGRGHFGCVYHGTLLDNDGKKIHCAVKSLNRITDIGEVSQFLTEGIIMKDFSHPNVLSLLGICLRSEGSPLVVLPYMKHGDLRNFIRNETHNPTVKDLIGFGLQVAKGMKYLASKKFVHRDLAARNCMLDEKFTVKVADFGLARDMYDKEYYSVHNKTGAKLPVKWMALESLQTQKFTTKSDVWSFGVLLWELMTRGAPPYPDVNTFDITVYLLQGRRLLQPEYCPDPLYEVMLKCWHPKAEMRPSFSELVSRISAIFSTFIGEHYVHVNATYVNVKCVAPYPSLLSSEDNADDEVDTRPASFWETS

[3] = molecular target: T1, Hepatocyte growth factor receptor; assay: Induction of c-Met degradation in human MHCC97H cells at 500 nM by Western blotting analysis; type: cell-based; conditions: time 3-48 hrs, TDE = time-dependent effect
[4] = molecular target: T1, Hepatocyte growth factor receptor; assay: Induction of c-Met degradation in human MHCC97H cells assessed as downregulation of c-Met protein level at 500 nM after 24 hrs by Western blotting analysis; type: cell-based
[5] = molecular target: T1, Hepatocyte growth factor receptor; assay: Induction of c-Met degradation in human MHCC97H cells at 500 nM after 24 hrs in presence of MG-132 by Western blotting analysis; type: cell-based
[6] = molecular target: T1, Hepatocyte growth factor receptor; assay: Induction of c-Met degradation in human HepG2 cells incubated for 24 hrs by Western blotting analysis; type: cell-based; conditions: dose 63-100 nM
MHCC97H [7] = assay: Inhibition of cell growth in human MHCC97H cells incubated for 5 days by microplate reader assay; type: functional, cell-based; conditions: time 5.0 day
MHCC97H [8] = assay: Induction of cell cycle arrest in human MHCC97H cells assessed as accumulation of cells at G2 phase at 3 nM incubated for 24 hrs by PI staining based flow cytometry analysis (reference value: 19.1%); type: functional
MHCC97H [9] = assay: Induction of cell cycle arrest in human MHCC97H cells assessed as accumulation of cells at G2 phase at 100 nM incubated for 24 hrs by PI staining based flow cytometry analysis (reference value: 19.1%); type: functional
MHCC97H [10] = assay: Induction of apoptosis in human MHCC97H cells assessed as viable cells at 3 nM incubated for 24 hrs by Annexin-V-FITC/PI staining based flow cytometry analysis (reference value: 86.3%); type: functional; conditions: read-out: Activity
MHCC97H [11] = assay: Induction of apoptosis in human MHCC97H cells assessed as early apoptotic cells at 10 nM incubated for 24 hrs by Annexin-V-FITC/PI staining based flow cytometry analysis (reference value: 7.70%); type: functional
MHCC97H [12] = assay: Induction of apoptosis in human MHCC97H cells assessed as late apoptotic cells at 10 nM incubated for 24 hrs by Annexin-V-FITC/PI staining based flow cytometry analysis (reference value: 4.24%); type: functional
MHCC97H [13] = assay: Induction of apoptosis in human MHCC97H cells assessed as necrotic cells at 10 nM incubated for 24 hrs by Annexin-V-FITC/PI staining based flow cytometry analysis (reference value: 1.77%); type: functional
MHCC97H [14] = assay: Induction of apoptosis in human MHCC97H cells assessed as viable cells at 100 nM incubated for 24 hrs by Annexin-V-FITC/PI staining based flow cytometry analysis (reference value: 86.3%); type: functional; conditions: read-out: Activity
MHCC97H [15] = assay: Induction of apoptosis in human MHCC97H cells assessed as early apoptotic cells at 100 nM incubated for 24 hrs by Annexin-V-FITC/PI staining based flow cytometry analysis (reference value: 7.70%); type: functional
MHCC97H [16] = assay: Induction of apoptosis in human MHCC97H cells assessed as late apoptotic cells at 100 nM incubated for 24 hrs by Annexin-V-FITC/PI staining based flow cytometry analysis (reference value: 4.24%); type: functional
MHCC97H [17] = assay: Antitumor activity against human MHCC97H cells xenografted in BALB/c mouse assessed as tumor growth inhibition at 10 mg/kg, ip qd for 22 days and measured every 2 days; type: functional; conditions: 528 h, time 22 day, read-out: TGI
MHCC97H [18] = assay: Antitumor activity against human MHCC97H cells xenografted in BALB/c mouse assessed as tumor growth inhibition at 20 mg/kg, po qd for 22 days and measured every 2 days; type: functional; conditions: 528 h, time 22 day, read-out: TGI
MHCC97H [19] = assay: Antitumor activity against human MHCC97H cells xenografted in BALB/c mouse assessed as reduction in tumor positive cells at 10 mg/kg, ip qd for 22 days and measured every 2 days by Ki67 staining based analysis; type: functional, organism-based; conditions: time 22.0 day
[20] = Toxicity in BALB/c mouse xenografted with human MHCC97H cells assessed as kidney lesions at 10 mg/kg, ip qd for 22 days and measured every 2 days by H and E staining based assay; type: organism-based; conditions: in vivo, 528 h, time 22 day
[21] = Toxicity in BALB/c mouse xenografted with human MHCC97H cells assessed as liver lesions at 20 mg/kg, po qd for 22 days and measured every 2 days by H and E staining based assay; type: organism-based; conditions: in vivo, 528 h, time 22 day
[22] = Toxicity in BALB/c mouse xenografted with human MHCC97H cells assessed as heart lesions at 20 mg/kg, po qd for 22 days and measured every 2 days by H and E staining based assay; type: organism-based; conditions: in vivo, 528 h, time 22 day
Mus musculus [23] = assay: Downregulation of c-Met protein level in BALB/c mouse tumor xenografted with human MHCC97H cells at 20 mg/kg, po qd for 22 days and measured every 2 days by Western blotting analysis; type: functional, organism-based; conditions: time 22.0 day
Mus musculus [24] = assay: Downregulation of c-Met protein level in BALB/c mouse tumor xenografted with human MHCC97H cells at 10 mg/kg, ip qd for 22 days and measured every 2 days by Western blotting analysis; type: functional, organism-based; conditions: time 22.0 day
[25] = Mean residence time (0 to infinity) in Sprague-Dawley rat at 1 mg/kg, iv by LC-MS/MS method; type: ADME, organism-based; conditions: in vivo
[26] = Tmax in Sprague-Dawley rat at 1 mg/kg, iv by LC-MS/MS method; type: ADME, organism-based; conditions: in vivo
[27] = Clearance in Sprague-Dawley rat at 1 mg/kg, iv by LC-MS/MS method; type: ADME, organism-based; conditions: in vivo
[28] = Cmax in Sprague-Dawley rat at 10 mg/kg, po by LC-MS/MS method; type: ADME, organism-based; conditions: in vivo
[29] = Mean residence time (0 to infinity) in Sprague-Dawley rat at 10 mg/kg, po by LC-MS/MS method; type: ADME, organism-based; conditions: in vivo
[30] = Half-life in Sprague-Dawley rat at 10 mg/kg, po by LC-MS/MS method; type: ADME, organism-based; conditions: in vivo
[31] = Tmax in Sprague-Dawley rat at 10 mg/kg, po by LC-MS/MS method; type: ADME, organism-based; conditions: in vivo
BaF3 = assay: Antiproliferative activity against mouse BaF3 cells harboring TPR-MET D1228N mutant fusion protein incubated for 72 hrs by CellTiter-Glo reagent based assay; type: functional, cell-based; conditions: BaF3, 72 h

## N#Cc1cccc(-c2ccc(=O)n(Cc3cccc(-c4ncc(OCC5CCN(CCCCCC(=O)NCC67CC8CC(CC(C8)C6)C7)CC5)cn4)c3)n2)c1
MHCC97H [1]
  IC50: 2.62 nM
[2]
  Activity: 84.8%
[3]
  Activity: Tde
[4]
  Activity: Active
[5]
  Activity: inactive
[6]
  Activity: Dose-Dependent Effect
MHCC97H [7]
  inhibition: Active
MHCC97H [8]
  Activity: 15.9%
MHCC97H [9]
  Activity: 13.6%
MHCC97H [10]
  viability at 0.003 µM: 79.5%
MHCC97H [11]
  Activity: 19.7%
MHCC97H [12]
  Activity: 6.18%
MHCC97H [13]
  Activity: 1.4%
MHCC97H [14]
  viability at 0.1 µM: 52.7%
MHCC97H [15]
  Activity: 39.9%
MHCC97H [16]
  Activity: 6.06%
MHCC97H [17]
  inhibition in vivo at 10 mg/kg: 61.5%
MHCC97H [18]
  inhibition in vivo at 20 mg/kg: 52.5%
MHCC97H [19]
  Activity: Active
[20]
  Activity: Non-Toxic
[21]
  Activity: Non-Toxic
[22]
  Activity: Non-Toxic
Mus musculus [23]
  Activity: Active
Mus musculus [24]
  Activity: Active
[25]
  MRT inf: 3.86 h
[26]
  Tmax: 4.98 min
[27]
  clearance: 17.5 mL/min/kg
[28]
  Cmax: 16.3 ng/mL
[29]
  MRT inf: 3.73 h
[30]
  half-life: 2.57 h
[31]
  Tmax: 1.17 h
BaF3
  IC50: 463 nM
